Data reported in patent US20150079590A1, “CHARACTERIZATION AND ANALYSIS OF THE COMPOSITION AND DYNAMICS OF THE MAMMALIAN RIBOPROTEOME” (Beth Israel Deaconess Medical Center, Inc., priority 2013, published 2015).

What was measured:
[1] = tested on: ribosome-mRNA complexes of PC3 prostate cancer cells; assay: Puromycin-mediated dissociation of ribosome-mRNA complexes, western blot of polysomal fractions; type: biochemical, human; conditions: 1 mM puromycin in lysis buffer, 37° C. 15 min
Method: Puromycin-induced polysome dissociation was carried out by the addition of 1 mM puromycin directly to the lysis buffer lacking cycloheximide as previously described (Blobel and Sabatini, Proc Natl Acad Sci USA 68:390-394, 1971; Fuchs et al., J Mol Biol. 410:118-130, 2011). Briefly, following lysis, the samples were incubated at 37° C. for 15 min to dissociate ribosome-mRNA complexes. Lysates were centrifuged at 13,000 rpm for 5 min at 4° C., and the supernatant carefully removed and loaded on a 15%-50% sucrose gradient. Gradients were centrifuged and fractionated as described above.
Cells were lysed in lysis buffer containing Complete Mini protease inhibitors (EDTA free) (Roche) and a Phosphatase Inhibitor cocktail (Thermo Scientific). 5-50 μg of total protein was subjected to SDS-PAGE on 4-12% Bis-Tris acrylamide NuPAGE gels in MOPS SDS running buffer (Invitrogen). The following primary antibodies were used: MARCKS, phospho-MARCKS (S152/156), Integrin β1, Calmodulin, Hsp27, Hsp60, RpL13a, RpL7a, and RpS6 (all Cell Signaling), HSP90, (BD Bioscience; BD Transduction Laboratories), hnRNPC1/C2 (Millipore), Rps14 and β-actin (all from Santa Cruz Biotechnologies). The NPM antibody was from DAKO and the IGF2BP3 antibody was from ProteinTech. Subsequently, membranes were incubated with secondary, HRP-tagged antibodies (Amersham) and signals were visualized with ECL or ECL plus (Amersham). […]

[2] = tested on: binding of LARP1 at the polysome; assay: Micrococcal nuclease (MN) assay on pooled sucrose gradient fractions, ribosome pelleting and western blot; conditions: cells treated with PP242 prior to analysis
Method: Pooled sucrose gradient fractions containing LARP1 protein, were treated with and without MN. Ribosomes were subsequently pelleted by ultracentrifugation, and the protein in supernatant and pellet isolated for western blot analysis.

[3] = tested on: riboproteomes of PPC1 prostate cancer cells; assay: SILAC riboproteomic analysis of polysomes upon mTOR inhibition; type: cell-based, human
Method: SILAC labeled protein mixtures were run by SDS-PAGE and gel lanes were cut into 8 sections for overnight digestion at pH 8.0 with modified sequencing grade trypsin (Promega Corp.). Peptide mixtures were eluted and each gel section was analyzed separately by microcapillary liquid chromatography-tandem mass spectrometry (LC-MS/MS) using the EASY-nLC nanoflow HPLC (Thermo Fisher Scientific) with a 75 μm inner diameter×15 cm length Picofrit capillary column (New Objective, Inc.) self-packed with 5 μm Magic C18 resin (Michrom Bioresources) coupled to a hybrid LTQ Orbitrap XL-ETD mass spectrometer (Thermo Fisher Scientific). The LTQ Orbitrap XL was operated in data-dependent acquisition (DDA) Top 5 mode (1 profile FT-MS spectrum followed by 6 centroided IT-MS/MS spectra). The resolution was 30,000 in FT-MS mode and MS/MS spectra were read out at low resolution in the LTQ XL ion trap. […] Carbamidomethylation of cysteine was set as fixed modification and variable modifications were oxidation of methionine and protein N-acetylation. […] Initial peptide mass tolerance was set to 12 ppm and fragment ion mass tolerance was set to 0.8 Da. Two missed cleavages were allowed and the minimal length required for a peptide was six amino acids. […]

| Structure (SMILES) | RpS6 and RpL13a on polyribosomes ([1]; pooled polysomal fractions) | presence of MARCKS in polyribosome fractions ([1]; PC3 cells) | LARP1 in supernatant after ribosome pelleting [2] | PABP association with polysome fractions [2] | disassociation of proteins incl. ribosomal proteins (RpL4, RpL6, RpS6) from the riboproteome ([3]; PP242 500 nM for three hours vs DMSO) | impact on the composition of the riboproteome ([3]; rapamycin 20 nM or PP242 500 nM for three hours vs DMSO, SILAC mass spectrometry of polysomes) |
| --- | --- | --- | --- | --- | --- | --- |
| COc1ccc(C[C@H](N)C(=O)N[C@H]2[C@@H](O)[C@H](n3cnc4c(N(C)C)ncnc43)O[C@@H]2CO)cc1 [puromycin] | loss of RpS6 and RpL13a from polyribosomes | dramatically decreased |  |  |  |  |
| CC(C)n1nc(-c2cc3cc(O)ccc3[nH]2)c2c(N)ncnc21 [PP242] |  |  | more LARP1 observed in the supernatant | remain tightly intact with polysome fractions | rapid and significant disassociation from the riboproteome | much stronger and more robust perturbation of the riboproteome |
